Like-named read-outs stand apart in the source and are kept apart here.
Tests used:
[1] = molecular target: PARP-1 (Homo sapiens, UniProt P09874); test: cell-free PARP-1 IC50 assay (colorimetric dose-response)
[2] = lipophilicity (log Poct) by C-18 reverse-phase HPLC; type: physicochemical; conditions: C-18 reverse-phase HPLC column
[3] = molecular target: human serum albumin (Homo sapiens, UniProt P02768); test: percentage plasma protein binding by human serum albumin coated HPLC column; type: in vitro ADME; conditions: for fraction unbound: human, read-out: %PPB (converted)
Sequence of human serum albumin (P02768 25-609): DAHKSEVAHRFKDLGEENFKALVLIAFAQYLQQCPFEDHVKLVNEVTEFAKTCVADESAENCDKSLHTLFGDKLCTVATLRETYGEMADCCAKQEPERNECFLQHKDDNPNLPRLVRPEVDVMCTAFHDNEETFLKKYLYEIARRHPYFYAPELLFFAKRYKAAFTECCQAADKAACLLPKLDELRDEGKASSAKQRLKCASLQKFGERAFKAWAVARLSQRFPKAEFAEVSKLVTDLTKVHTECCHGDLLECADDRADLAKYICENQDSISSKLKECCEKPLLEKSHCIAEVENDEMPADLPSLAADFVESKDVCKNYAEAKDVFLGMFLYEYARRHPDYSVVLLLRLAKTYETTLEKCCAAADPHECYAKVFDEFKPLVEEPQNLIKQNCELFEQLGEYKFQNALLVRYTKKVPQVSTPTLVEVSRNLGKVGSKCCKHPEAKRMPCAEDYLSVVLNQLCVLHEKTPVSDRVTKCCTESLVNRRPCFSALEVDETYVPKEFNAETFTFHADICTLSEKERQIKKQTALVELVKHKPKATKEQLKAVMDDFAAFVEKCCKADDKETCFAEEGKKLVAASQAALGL

[4] = parameters: method as in PMID 26493053; conditions: at 120 min; cited from earlier work
[5] = molecular target: T1, PARP in U87MG-Luc2 human glioblastoma xenografts (Homo sapiens, UniProt P09874); test: ex vivo biodistribution with preblockade by nonradioactive 1; type: in vivo, mouse
T1 construct: from tissue; host or cells: subcutaneous U87MG-Luc2 human glioblastoma xenograft in female CD1 nude mice
T1 sequence (P09874 whole entry): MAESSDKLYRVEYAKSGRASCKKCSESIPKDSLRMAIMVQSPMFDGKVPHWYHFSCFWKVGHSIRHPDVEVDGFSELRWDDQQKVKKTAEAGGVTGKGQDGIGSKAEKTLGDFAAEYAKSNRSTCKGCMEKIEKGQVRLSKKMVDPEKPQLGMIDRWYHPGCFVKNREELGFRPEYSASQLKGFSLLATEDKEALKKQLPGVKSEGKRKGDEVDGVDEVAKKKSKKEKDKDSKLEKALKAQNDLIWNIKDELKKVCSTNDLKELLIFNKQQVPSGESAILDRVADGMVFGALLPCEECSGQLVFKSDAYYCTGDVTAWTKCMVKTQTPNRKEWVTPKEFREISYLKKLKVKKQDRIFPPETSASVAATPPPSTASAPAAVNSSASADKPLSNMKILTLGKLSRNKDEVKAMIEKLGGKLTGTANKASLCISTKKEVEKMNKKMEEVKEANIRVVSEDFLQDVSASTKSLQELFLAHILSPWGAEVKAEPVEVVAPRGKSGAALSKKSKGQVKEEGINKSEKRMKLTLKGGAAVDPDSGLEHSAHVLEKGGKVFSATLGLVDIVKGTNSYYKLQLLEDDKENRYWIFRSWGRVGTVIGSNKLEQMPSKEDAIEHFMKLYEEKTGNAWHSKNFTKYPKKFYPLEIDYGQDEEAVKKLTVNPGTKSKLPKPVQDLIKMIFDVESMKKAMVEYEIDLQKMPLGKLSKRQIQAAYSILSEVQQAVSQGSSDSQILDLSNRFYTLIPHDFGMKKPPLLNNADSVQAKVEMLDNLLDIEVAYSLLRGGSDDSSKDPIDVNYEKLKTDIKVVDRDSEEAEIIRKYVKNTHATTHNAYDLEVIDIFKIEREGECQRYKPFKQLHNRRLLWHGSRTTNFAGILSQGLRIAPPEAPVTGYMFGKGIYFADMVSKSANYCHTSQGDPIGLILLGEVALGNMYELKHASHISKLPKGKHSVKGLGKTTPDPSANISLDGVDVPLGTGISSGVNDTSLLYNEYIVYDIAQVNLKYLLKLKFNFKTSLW
Procedure: To establish the specificity of [^18F]20 for PARP in bone and tumor tissue, further biodistribution studies were performed on subcutaneous U87MG-Luc2 glioblastoma bearing mice that had PARP binding sites blocked by pretreatment with nonradioactive compound 1 at a dose of 50 mg/kg 20 min prior to [^18F]20 administration. […] This supports the earlier proposed possibility of in vivo [^18F]20 defluorination, leading to free radiofluoride accumulation in the bone.
(§1) U87MG-Luc2 glioblastoma cell culture and implantation procedures were performed as reported previously.[19] Briefly, U87MG-Luc2 cells were purchased commercially from ATCC and cultured in minimum essential media that has been supplemented with 10% w/v fetal calf serum and 2 mM L-glutamine at 37 °C and 5% v/v CO2. Unconscious female CD1 nude mice (6–11 week old; purchased from Charles River Laboratories) had 5 × 10^6 U87MG-Luc2 cells injected subcutaneously into the right flank. The resulting tumor xenografts were measured and monitored visually every 3 days, and tumor-bearing animals were used for in vivo studies 28–30 days post-implantation.
(§2) Subcutaneous tumor bearing mice were administered 1.8–2.6 MBq of [^18F]20 in 0.11–0.21 mL of 5% v/v DMSO in 0.9% saline via bolus tail-vein injections. The remainder of the experiment was conducted as described previously.[19]

[6] = test system: U87MG-Luc2 human glioblastoma tumor xenografts; test: ex vivo biodistribution in subcutaneous U87MG-Luc2 glioblastoma bearing nude mice; parameters: species or system mouse
Procedure: Following successful optimization of the radiochemistry, the behavior of [^18F]20 was investigated in vivo in mice bearing subcutaneous U87MG-Luc2 human glioblastoma tumor xenografts using ex vivo biodistribution and PET–MR imaging techniques. Ex vivo biodistribution of [^18F]20 was established at 30, 60, and 120 min after intravenous radiotracer administration, and PET data were acquired by performing a 45 min dynamic scan. […] This is in contrast to observations made by Carney et al., who reported <2%ID/g of bone of [^18F]8 at 120 min.[34] The high bone uptake seen with [^18F]20 could be explained by in vivo defluorination and subsequent radiofluoride accumulation in bone tissue.[35] Despite this, apparent radiotracer tumor uptake was identified in both biodistribution and PET–MR imaging experiments (Figures 3a,c), whereas in the case of the former, the mean ratio of %ID/g of glioblastoma tumor to muscle increased from 1.9 ± 0.5 (n = 4) to 3.6 ± 0.5 (n = 4) between the 30 and 120 min time points.
as §1, §2

[7] = intrinsic clearance in human liver microsomes; type: in vitro ADME; conditions: for microsomal CLint: human, liver microsomes
Excerpt: (§3) However, these were still within the optimal range for a nuclear imaging agent. […] Collectively, the optimal physiochemical properties and low nanomolar PARP cell-free and cellular IC50 values supported further investigation of 20 as a potential radiotracer for PARP. In the body, radiotracers can be exposed to a number of metabolic pathways, including blood plasma hydrolysis and liver functionalization or conjugation reactions that can have a significant effect on the kinetic properties of the tracer and, subsequently its usefulness in nuclear imaging. With this in mind, the in vitro plasma and liver microsome stability of lead candidate 20 were established by incubating the compound in mouse plasma proteins and human liver microsome enzymes, respectively, using previously described methodologies.[19]

[8] = mouse plasma stability; type: in vitro ADME
Excerpt: as §3

[9] = experiment 1, read-out: Clint, experiment 1
[10] = experiment 2, read-out: Clint, experiment 2

Sequence of PARP-1 (P09874 whole entry, species assumed): as the sequence (P09874 whole entry) above

Structure (SMILES)	IC50 [1] [nM]	chromatographic logP [2]	fraction unbound [3]	other results
O=C(Cc1ccc(F)cc1)N1CCN(C(=O)c2cc(Cc3n[nH]c(=O)c4ccccc34)ccc2F)CC1 [compound 11, 4-[3′-[4″-[(4‴-Fluorophenyl)acetyl]piperazine-1″-carbonyl]-4′-fluorobenzyl]-2H-phthalazin-1-one]	1.3	2.67	0.101	–
O=C(c1ccc([18F])cc1)N1CCN(C(=O)c2cc(Cc3n[nH]c(=O)c4ccccc34)ccc2F)CC1 [[^18F]8]	–	–	–	%ID/g of bone [4]: < 2 %ID/g
O=C(c1ccc(C[18F])cc1)N1CCN(C(=O)c2cc(Cc3n[nH]c(=O)c4ccccc34)ccc2F)CC1 [[^18F]20]	–	–	–	ratio of %ID/g of tumor to muscle, preblockade using 1 ([5]; 60 min after [18F]20 administration, 50 mg/kg of 1 given 20 min prior, P < 0.05 vs vehicle): 1.07 ± 0.15; ratio of %ID/g of tumor to muscle, vehicle-pretreated mice ([5]; 60 min after [18F]20 administration, vehicle pretreatment): 1.79 ± 0.39; uptake in bone tissue in presence of excess nonradioactive 1 ([5]; 60 min after radioligand administration, 50 mg/kg of 1 pretreatment): not influenced; mean ratio of %ID/g of glioblastoma tumor to muscle, 30 min ([6]; 30 min after intravenous injection, n = 4): 1.9 ± 0.5; mean ratio of %ID/g of glioblastoma tumor to muscle, 120 min ([6]; 120 min after intravenous injection, n = 4): 3.6 ± 0.5; mean percentage of injected dose per gram (%ID/g) of femur tissue ([6]; across 30, 60 and 120 min after intravenous tracer administration): > 8.5%
O=C(c1ccc(CF)cc1)N1CCN(C(=O)c2cc(Cc3n[nH]c(=O)c4ccccc34)ccc2F)CC1 [compound 20]	2	2.51	0.107	cell-free IC50 fold less than that of 1 ([1]; compared with 1): 6 fold; cell-free IC50 fold less than that of 8 ([1]; compared with 8): 3 fold; intrinsic clearance fold greater in comparison to 1 ([7]; compared with 1): approximately 3 fold; microsomal CLint [7, 9]: 74 µL/min/mg; microsomal CLint [7, 10]: 90 µL/min/mg; stability in mouse plasma ([8]; 20 h incubation in mouse plasma): negligible decomposition; plasma stability, 20 h ([8]; mean percentage of parent compound remaining after 20 h incubation in mouse plasma): 95%; plasma stability, 0 h ([8]; mean percentage of parent compound remaining, mouse plasma, 0 h): 93%
O=C(c1ccccc1F)N1CCN(C(=O)c2cc(Cc3n[nH]c(=O)c4ccccc34)ccc2F)CC1 [compound 9, 4-[3′-[4″-(2‴-Fluorobenzoyl)piperazine-1″-carbonyl]-4′-fluorobenzyl]-2H-phthalazin-1-one]	3.6	2.46	0.136	–
O=C(CCC(=O)N1CCN(C(=O)c2cc(Cc3n[nH]c(=O)c4ccccc34)ccc2F)CC1)c1ccc(F)cc1 [compound 12, 4-[3′-[4′′′′′-[(4‴-Fluorophenyl)butane-1′′′′,4′′′′-dione]-piperazine-1‴-carbonyl]4″-fluorobenzyl]-2H-phthalazin-1-one]	4.1	2.81	0.094	–

The next lines start with results.

IC50 [1] [nM]	chromatographic logP [2]	fraction unbound [3]	Structure (SMILES)	other results
–	1.95	–	O=C(c1cc(Cc2n[nH]c(=O)c3ccccc23)ccc1F)N1CCN(C(=O)C2CC2)CC1 [compound 1, olaparib, reference compound]	microsomal CLint [7, 9]: 23 µL/min/mg; microsomal CLint [7, 10]: 34 µL/min/mg; %PPB [3]: 75.9%
11.2	3.14	0.053	O=C(c1cc(Cc2n[nH]c(=O)c3ccccc23)ccc1F)N1CCN(Cc2ccc(F)cc2)CC1 [compound 13, 4-[3′-[4″-(4‴-Fluorobenzyl)piperazine-1″-carbonyl]-4′-fluorobenzyl]-2H-phthalazin-1-one]	–
2.9	2.66	0.139	Cc1cc(F)ccc1C(=O)N1CCN(C(=O)c2cc(Cc3n[nH]c(=O)c4ccccc34)ccc2F)CC1 [compound 10, 4-[3′-[4″-(4‴-Fluoro-2‴-methylbenzoyl)piperazine-1″-carbonyl]-4′-fluorobenzyl]-2H-phthalazin-1-one]	–
–	2.51	0.141	O=C(c1ccc(F)cc1)N1CCN(C(=O)c2cc(Cc3n[nH]c(=O)c4ccccc34)ccc2F)CC1 [compound 8, 4-[3′-[4″-(4‴-Fluorobenzoyl)piperazine-1″-carbonyl]-4′-fluorobenzyl]-2H-phthalazin-1-one]	–

Reference: article PMC6007963, “An ^18F-Labeled Poly(ADP-ribose) Polymerase Positron Emission Tomography Imaging Agent” (Journal of Medicinal Chemistry, 2018)
